Laboratory results: ChEMBL document CHEMBL4145540 (Eur J Med Chem, 2018)
Activity calls are given as the source filed them. The rule behind the calls is not given here.

How the values were obtained:
A549 [1] = experiment: Cell cycle arrest in human A549 cells assessed as accumulation at S phase at 90 nM after 20 hrs by propidium iodide staining based flow cytometry (reference value: 16 +/- 1%); assay type: functional
A549 [2] = experiment: Cell cycle arrest in human A549 cells assessed as accumulation at sub-G0 phase at 90 nM after 20 hrs by propidium iodide staining based flow cytometry (reference value: 6.6 +/- 0.1%); assay type: functional
HeLa = experiment: Antiproliferative activity against human HeLa cells after 2 days by MTT assay; assay type: functional, cell-based; settings: 48 h
A549 [3] = experiment: Antiproliferative activity against human A549 cells after 2 days by MTT assay; assay type: functional, cell-based; settings: A549, 48 h
A549 [4] = experiment: Cell cycle arrest in human A549 cells assessed as accumulation at G0/G1 phase at 90 nM after 20 hrs by propidium iodide staining based flow cytometry (reference value: 66 +/- 1%); assay type: functional
A549 [5] = experiment: Cell cycle arrest in human A549 cells assessed as accumulation at G2/M phase at 90 nM after 20 hrs by propidium iodide staining based flow cytometry (reference value: 11 +/- 1%); assay type: functional
HT-29 = experiment: Antiproliferative activity against human HT-29 cells after 2 days by MTT assay; assay type: functional, cell-based; settings: HT-29, 48 h
MCF7 = experiment: Antiproliferative activity against human MCF7 cells after 2 days by MTT assay; assay type: functional, cell-based; settings: MCF7, 48 h
HMEC-1 [6] = experiment: Antiproliferative activity against HMEC1 cells after 2 days by MTT assay; assay type: functional, cell-based; settings: Homo sapiens, HMEC-1, 48 h
MDA-MB-231 = experiment: Antiproliferative activity against human MDA-MB-231 cells after 3 days by coulter counting method; assay type: functional, cell-based; settings: MDA-MB-231, 72 h
HEK293 = experiment: Antiproliferative activity against HEK293 cells after 2 days by MTT assay; assay type: cell-based; settings: Homo sapiens, HEK293, 48 h
HL-60 = experiment: Antiproliferative activity against human HL60 cells after 2 days by MTT assay; assay type: functional, cell-based; settings: HL-60, 48 h
A549 [7] = experiment: Cell cycle arrest in human A549 cells assessed as accumulation at sub-G0 phase at 60 nM after 20 hrs by propidium iodide staining based flow cytometry (reference value: 6.6 +/- 0.1%); assay type: functional
A549 [8] = experiment: Induction of apoptosis in human A549 cells at 100 nM after 24 hrs by Annexin V-FITC/propidium iodide staining based flow cytometry (reference value: 28%); assay type: functional
A549 [9] = experiment: Induction of apoptosis in human A549 cells after 24 hrs by Annexin V-FITC/propidium iodide staining based flow cytometry; assay type: functional, cell-based
A549 [10] = experiment: Disruption of microtubule network in human A549 cells assessed as appearance of tubulin aggregates at 230 nM after 16 hrs by Hoechst staining based immunofluorescence assay; assay type: cell-based
A549 [11] = experiment: Cell cycle arrest in human A549 cells assessed as accumulation at G2/M phase at 60 nM after 20 hrs by propidium iodide staining based flow cytometry (reference value: 11 +/- 1%); assay type: functional
A549 [12] = experiment: Cell cycle arrest in human A549 cells assessed as accumulation at G0/G1 phase at 60 nM after 20 hrs by propidium iodide staining based flow cytometry (reference value: 66 +/- 1%); assay type: functional
A549 [13] = experiment: Disruption of microtubule network in human A549 cells assessed as appearance of compressed and fragmented nuclei at 230 nM after 16 hrs by Hoechst staining based immunofluorescence assay; assay type: cell-based
Bos taurus = species on record: Bos taurus; experiment: Inhibition of calf brain tubulin polymerization after 60 mins by turbidimetric method
HMEC-1 [14] = experiment: Vascular disruptive activity in HMEC1 cells assessed as disruption of preformed tubular networks after 4 hrs by matrigel based assay; assay type: functional, cell-based; settings: Homo sapiens
A549 [15] = experiment: Cell cycle arrest in human A549 cells assessed as accumulation at S phase at 60 nM after 20 hrs by propidium iodide staining based flow cytometry (reference value: 16 +/- 1%); assay type: functional
A549 [16] = experiment: Induction of apoptosis in human A549 cells at 10 nM after 24 hrs by Annexin V-FITC/propidium iodide staining based flow cytometry (reference value: 28%); assay type: functional
A549 [17] = experiment: Cell cycle arrest in human A549 cells assessed as accumulation at G2/M phase at 75 nM after 20 hrs by propidium iodide staining based flow cytometry (reference value: 11 +/- 1%); assay type: functional
A549 [18] = experiment: Cell cycle arrest in human A549 cells assessed as accumulation at sub-G0 phase at 75 nM after 20 hrs by propidium iodide staining based flow cytometry (reference value: 6.6 +/- 0.1%); assay type: functional
A549 [19] = experiment: Cell cycle arrest in human A549 cells assessed as accumulation at S phase at 75 nM after 20 hrs by propidium iodide staining based flow cytometry (reference value: 16 +/- 1%); assay type: functional
A549 [20] = experiment: Disruption of microtubule network in human A549 cells assessed as appearance of tubulin aggregates at 300 nM after 16 hrs by Hoechst staining based immunofluorescence assay; assay type: cell-based
A549 [21] = experiment: Disruption of microtubule network in human A549 cells assessed as appearance of compressed and fragmented nuclei at 300 nM after 16 hrs by Hoechst staining based immunofluorescence assay; assay type: cell-based
A549 [22] = experiment: Cell cycle arrest in human A549 cells assessed as accumulation at G0/G1 phase at 75 nM after 20 hrs by propidium iodide staining based flow cytometry (reference value: 66 +/- 1%); assay type: functional
A549 [23] = experiment: Cell cycle arrest in human A549 cells assessed as accumulation at G2/M phase at 40 nM after 20 hrs by propidium iodide staining based flow cytometry (reference value: 11 +/- 1%); assay type: functional
A549 [24] = experiment: Cell cycle arrest in human A549 cells assessed as accumulation at sub-G0 phase at 40 nM after 20 hrs by propidium iodide staining based flow cytometry (reference value: 6.6 +/- 0.1%); assay type: functional
A549 [25] = experiment: Cell cycle arrest in human A549 cells assessed as accumulation at G0/G1 phase at 40 nM after 20 hrs by propidium iodide staining based flow cytometry (reference value: 66 +/- 1%); assay type: functional
A549 [26] = experiment: Cell cycle arrest in human A549 cells assessed as accumulation at S phase at 40 nM after 20 hrs by propidium iodide staining based flow cytometry (reference value: 16 +/- 1%); assay type: functional
A549 [27] = experiment: Disruption of microtubule network in human A549 cells assessed as appearance of compressed and fragmented nuclei at 150 nM after 16 hrs by Hoechst staining based immunofluorescence assay; assay type: cell-based
A549 [28] = experiment: Disruption of microtubule network in human A549 cells assessed as appearance of tubulin aggregates at 150 nM after 16 hrs by Hoechst staining based immunofluorescence assay; assay type: cell-based
A549 [29] = experiment: Cell cycle arrest in human A549 cells assessed as accumulation at G0/G1 phase at 160 nM after 20 hrs by propidium iodide staining based flow cytometry (reference value: 66 +/- 1%); assay type: functional
A549 [30] = experiment: Cell cycle arrest in human A549 cells assessed as accumulation at G2/M phase at 160 nM after 20 hrs by propidium iodide staining based flow cytometry (reference value: 11 +/- 1%); assay type: functional
A549 [31] = experiment: Cell cycle arrest in human A549 cells assessed as accumulation at sub-G0 phase at 160 nM after 20 hrs by propidium iodide staining based flow cytometry (reference value: 6.6 +/- 0.1%); assay type: functional
A549 [32] = experiment: Cell cycle arrest in human A549 cells assessed as accumulation at S phase at 160 nM after 20 hrs by propidium iodide staining based flow cytometry (reference value: 16 +/- 1%); assay type: functional
A549 [33] = experiment: Cell cycle arrest in human A549 cells assessed as accumulation at G0/G1 phase at 400 nM after 20 hrs by propidium iodide staining based flow cytometry (reference value: 66 +/- 1%); assay type: functional
A549 [34] = experiment: Cell cycle arrest in human A549 cells assessed as accumulation at S phase at 400 nM after 20 hrs by propidium iodide staining based flow cytometry (reference value: 16 +/- 1%); assay type: functional
A549 [35] = experiment: Cell cycle arrest in human A549 cells assessed as accumulation at G2/M phase at 400 nM after 20 hrs by propidium iodide staining based flow cytometry (reference value: 11 +/- 1%); assay type: functional
A549 [36] = experiment: Cell cycle arrest in human A549 cells assessed as accumulation at sub-G0 phase at 400 nM after 20 hrs by propidium iodide staining based flow cytometry (reference value: 6.6 +/- 0.1%); assay type: functional
A549 [37] = experiment: Cell cycle arrest in human A549 cells assessed as accumulation at sub-G0 phase at 50 nM after 20 hrs by propidium iodide staining based flow cytometry (reference value: 6.6 +/- 0.1%); assay type: functional
[38] = Selectivity index, ratio of IC50 for antiproliferative activity against HEK293 cells to IC50 for antiproliferative activity against human HeLa cells; assay type: toxicity, cell-based; settings: HEK293 cells versus HeLa cells, read-out: Ratio IC50
[39] = Selectivity index, ratio of IC50 for antiproliferative activity against HEK293 cells to IC50 for antiproliferative activity against human MCF7 cells; assay type: toxicity, cell-based; settings: HEK293 cells versus MCF7 cells, read-out: Ratio IC50
[40] = Selectivity index, ratio of IC50 for antiproliferative activity against HEK293 cells to IC50 for antiproliferative activity against human HL60 cells; assay type: toxicity, cell-based; settings: HEK293 cells versus HL60 cells, read-out: Ratio IC50
A549 [41] = experiment: Disruption of microtubule network in human A549 cells assessed as appearance of compressed and fragmented nuclei at 200 nM after 16 hrs by Hoechst staining based immunofluorescence assay; assay type: cell-based
A549 [42] = experiment: Cell cycle arrest in human A549 cells assessed as accumulation at G0/G1 phase at 50 nM after 20 hrs by propidium iodide staining based flow cytometry (reference value: 66 +/- 1%); assay type: functional
A549 [43] = experiment: Cell cycle arrest in human A549 cells assessed as accumulation at S phase at 50 nM after 20 hrs by propidium iodide staining based flow cytometry (reference value: 16 +/- 1%); assay type: functional
[44] = Selectivity index, ratio of IC50 for antiproliferative activity against HEK293 cells to IC50 for antiproliferative activity against human HT-29 cells; assay type: toxicity, cell-based; settings: HEK293 cells versus HT-29 cells, read-out: Ratio IC50
A549 [45] = experiment: Disruption of microtubule network in human A549 cells assessed as appearance of tubulin aggregates at 200 nM after 16 hrs by Hoechst staining based immunofluorescence assay; assay type: cell-based
A549 [46] = experiment: Cell cycle arrest in human A549 cells assessed as accumulation at G2/M phase at 50 nM after 20 hrs by propidium iodide staining based flow cytometry (reference value: 11 +/- 1%); assay type: functional

Row | Compound | IC50 (HeLa) [nM] | IC50 (A549 [3]) [nM] | IC50 (HT-29) [nM] | IC50 (MCF7) [nM] | IC50 (HMEC-1 [6]) [nM] | IC50 (MDA-MB-231) [nM] | IC50 (HEK293) [nM] | IC50 (HL-60) [nM] | Activity (A549 [8]) [%] | Activity (A549 [9]) | inhibition (Bos taurus) | Activity (A549 [16]) [%] | further results
1 | COc1ccc(/C=C\c2cc(OC)c(OC)c(OC)c2)cc1NC(=O)Oc1ccccc1Br | 2.6 | 180 | 7.5 | 18.9 | 22 | 13.4 | 8 | 3 | – | – | – | – | Activity (A549 [1]): 10%; Activity (A549 [2]): 17%; Activity (A549 [4]): 29%; Activity (A549 [5]): 44%
2 | COc1ccc(/C=C\c2cc(OC)c(OC)c(OC)c2)cc1N | 2.6 | 117 | 22 | 8 | 12 | 12 | 7.1 | 4.5 | 62 | Dose-dependent effect | Active | 56 | Activity (A549 [7]): 14%; Activity (A549 [10]): Active; Activity (A549 [11]): 41%; Activity (A549 [12]): 21%; Activity (A549 [13]): Active; Activity (HMEC-1 [14]): Dose-dependent effect; Activity (A549 [15]): 24%
3 | COc1ccc(/C=C\c2cc(OC)c(OC)c(OC)c2)cc1NC(=O)Oc1cccc(F)c1 | 2.7 | 150 | 10.6 | 7 | 20 | 14.8 | 13.2 | 60 | 67 | Dose-dependent effect | Active | 26 | Activity (A549 [17]): 43%; Activity (A549 [18]): 19%; Activity (A549 [19]): 10%; Activity (A549 [20]): Active; Activity (A549 [21]): Active; Activity (A549 [22]): 29%
4 | COc1ccc(/C=C\c2cc(OC)c(OC)c(OC)c2)cc1NC(=O)Oc1ccccc1 | 4.8 | 77 | 2.9 | 9.8 | 12 | 11.8 | 3.3 | 4 | 91 | Dose-dependent effect | – | 45 | Activity (A549 [23]): 44%; Activity (A549 [24]): 20%; Activity (A549 [25]): 21%; Activity (A549 [26]): 15%; Activity (A549 [27]): Active; Activity (A549 [28]): Active
5 | COc1ccc(/C=C\c2cc(OC)c(OC)c(OC)c2)cc1NC(=O)Oc1ccccc1F | 17 | 320 | 110 | 62 | 180 | 71 | 65 | 4 | – | – | – | – | Activity (A549 [29]): 31%; Activity (A549 [30]): 39%; Activity (A549 [31]): 17%; Activity (A549 [32]): 13%
6 | COc1ccc(/C=C\c2cc(OC)c(OC)c(OC)c2)cc1NC(=O)Oc1ccc(Cl)cc1 | 24 | 800 | 31 | 82 | 76 | 9.39 | 142 | 770 | – | – | – | – | Activity (A549 [33]): 21%; Activity (A549 [34]): 18%; Activity (A549 [35]): 41%; Activity (A549 [36]): 20%
7 | COc1ccc(/C=C\c2cc(OC)c(OC)c(OC)c2)cc1NC(=O)Oc1cccc(Cl)c1 | 4.79 | 100 | 9.2 | 4.4 | 9 | 15.1 | 14.5 | 13.5 | 93 | Dose-dependent effect | Active | 29 | Activity (A549 [37]): 16%; selectivity ratio [38]: 2 to 11; selectivity ratio [39]: 2 to 11; selectivity ratio [40]: 2 to 11; Activity (A549 [41]): Active; Activity (A549 [42]): 30%; Activity (A549 [43]): 10%; selectivity ratio [44]: 2 to 11; Activity (A549 [45]): Active; Activity (A549 [46]): 44%
